Measured values as given in US20070128217A1 (priority 2003, published 2007).

Assays:
[1] = test system: antibodies in sera from SARS patients (sera 1a, 1b, 2, 6, 37, 62, London, SARS-yellow, SARS-green); assay type: binding, human; set-up: Binding of serum 6 to linear peptides of protein X1 of SARS-CoV Urbani / Binding of serum 37 to linear peptides of protein X1 of SARS-CoV Urbani / Binding of serum 6 to looped/cyclic peptide (PEPSCAN-ELISA) / Binding of serum 37 to looped/cyclic peptide (PEPSCAN-ELISA) / Binding of serum 37 to looped/cyclic peptides of protein X1 of SARS-CoV Urbani / Binding of serum 6 to linear peptides of protein X2 / Binding of serum 37 to linear peptides of protein X2 / Binding of serum 37 to looped/cyclic peptides of protein X2 of SARS-CoV Urbani / Binding of serum 6 to linear peptides of protein M of SARS-CoV Urbani / Binding of serum 37 to linear peptides of protein M of SARS-CoV Urbani / Binding of serum 6 to looped/cyclic peptides of protein M of SARS-CoV Urbani / Binding of serum 37 to looped/cyclic peptides of protein M of SARS-CoV Urbani / Binding of serum 6 to linear peptides of protein X3 of SARS-CoV Urbani / Binding of serum 37 to linear peptides of protein X3 of SARS-CoV Urbani / Binding of serum 37 to looped/cyclic peptides of protein X3 of SARS-CoV Urbani / Binding of serum 6 to linear peptides of protein X4 of SARS-CoV Urbani / Binding of serum 37 to linear peptides of protein X4 of SARS-CoV Urbani / Binding of serum 37 to looped/cyclic peptides of protein X4 of SARS-CoV Urbani / Binding of serum 6 to linear peptides of protein X5 of SARS-CoV Urbani / Binding of serum 37 to linear peptides of protein X5 of SARS-CoV Urbani / Binding of serum 37 to looped/cyclic peptides of protein X5 of SARS-CoV Urbani / Binding of serum 6 to linear peptides of protein N of SARS-CoV Urbani / Binding of serum 37 to linear peptides of protein N of SARS-CoV Urbani / Binding of serum 6 to linear peptide (PEPSCAN-ELISA) / Binding of serum 1a to looped/cyclic peptides of protein N of SARS-CoV Urbani / Binding of serum 1b to looped/cyclic peptides of protein N of SARS-CoV Urbani / Binding of serum 2 to looped/cyclic peptides of protein N of SARS-CoV Urbani / Binding of serum 6 to looped/cyclic peptides of protein N of SARS-CoV Urbani / Binding of serum 37 to looped/cyclic peptides of protein N of SARS-CoV Urbani / Binding of serum 62 to looped/cyclic peptides of protein N of SARS-CoV Urbani / Binding of serum London to looped/cyclic peptides of protein N of SARS-CoV Urbani / Binding of serum SARS-green to looped/cyclic peptides of protein N of SARS-CoV Urbani: unit not given here
[2] = test system: control sera (pooled serum of ten healthy LUMC hospital workers; commercial negative donor pooled serum from the Dutch bloodbank); assay type: binding, human; set-up: Binding of Control serum LUMC to linear peptides / Binding of Control serum Blood-bank to linear peptides / Binding of Control serum LUMC to looped peptides / Binding of Control Serum Blood-Bank to Looped peptides / Binding of Control serum LUMC to linear peptides of the protein M of SARS-CoV Urbani / Binding of Control serum Blood-bank to linear peptides of the protein M of SARS-CoV Urbani / Binding of Control serum LUMC to looped peptides of the protein M of SARS-CoV Urbani / Binding of Control Serum Blood-Bank to Looped peptides of the protein M of SARS-CoV Urbani: unit not given here
[3] = test system: rabbit serum obtained by immunizing a rabbit with the SARS-CoV strain Frankfurt 1; assay type: binding; set-up: Binding of a rabbit serum to linear peptides / Binding of a rabbit serum to looped peptides / Rabbit serum linear peptides / Rabbit serum looped peptides / Binding of a rabbit serum to linear peptides of protein N of SARS-CoV Urbani (Rabbit serum linear peptides) / Binding of a rabbit serum to looped/cyclic peptides of protein N of SARS-CoV Urbani (Rabbit serum looped peptides): unit not given here

Sequence: LFVTIYSHLLLVAAG
- Binding of serum 1a to linear peptides of protein X1 of SARS-CoV Urbani [1]: 0.7
- Binding of serum 1a to looped/cyclic peptide (PEPSCAN-ELISA) [1]: 0.5
- Binding of serum 1b to linear peptides of protein X1 of SARS-CoV Urbani [1]: 0.4
- Binding of serum 1b to looped/cyclic peptide (PEPSCAN-ELISA) [1]: 0.3
- Binding of serum 2 to linear peptides of protein X1 of SARS-CoV Urbani [1]: 0.6
- Binding of serum 2 to looped/cyclic peptide (PEPSCAN-ELISA) [1]: 0.4
- Binding of serum 6 to linear peptides of protein X1 of SARS-CoV Urbani [1]: 0.3
- Binding of serum 6 to looped/cyclic peptide (PEPSCAN-ELISA) [1]: 0.2
- Binding of serum 37 to linear peptides of protein X1 of SARS-CoV Urbani [1]: 0.6
- Binding of serum 37 to looped/cyclic peptide (PEPSCAN-ELISA) [1]: 0.5
- Binding of serum 62 to linear peptides of protein X1 of SARS-CoV Urbani [1]: 0.5
- Binding of serum 62 to looped/cyclic peptide (PEPSCAN-ELISA) [1]: 0.5
- Binding of serum London to linear peptides of protein X1 of SARS-CoV Urbani [1]: 0.2
- Binding of serum London to looped/cyclic peptide (PEPSCAN-ELISA) [1]: 0.2
- Binding of serum SARS-green to linear peptides of protein X1 of SARS-CoV Urbani [1]: 0.2
- Binding of serum SARS-green to looped/cyclic peptide (PEPSCAN-ELISA) [1]: 0.3
- Binding of serum SARS-yellow to linear peptides of protein X1 of SARS-CoV Urbani [1]: 0.5
- Binding of serum SARS-yellow to looped/cyclic peptide (PEPSCAN-ELISA) [1]: 0.4
- Binding of Control Serum Blood-Bank to Looped peptides [2]: 0.6
- Binding of Control serum Blood-bank to linear peptides [2]: 0.5
- Binding of Control serum LUMC to linear peptides [2]: 0.4
- Binding of Control serum LUMC to looped peptides [2]: 0.6
- Binding of a rabbit serum to linear peptides [3]: 0.1
- Binding of a rabbit serum to looped peptides [3]: 0.6

Sequence: LIARCWYLHEGHQTA
- Binding of serum 1a to linear peptides of protein X5 of SARS-CoV Urbani [1]: 0.7
- Binding of serum 1a to looped/cyclic peptides of protein X5 of SARS-CoV Urbani [1]: 0.4
- Binding of serum 1b to linear peptides of protein X5 of SARS-CoV Urbani [1]: 0.6
- Binding of serum 1b to looped/cyclic peptides of protein X5 of SARS-CoV Urbani [1]: 0.4
- Binding of serum 2 to linear peptides of protein X5 of SARS-CoV Urbani [1]: 0.6
- Binding of serum 2 to looped/cyclic peptides of protein X5 of SARS-CoV Urbani [1]: 0.2
- Binding of serum 6 to linear peptides of protein X5 of SARS-CoV Urbani [1]: 0.1
- Binding of serum 6 to looped/cyclic peptides of protein X5 of SARS-CoV Urbani [1]: 0.1
- Binding of serum 37 to linear peptides of protein X5 of SARS-CoV Urbani [1]: 0.8
- Binding of serum 37 to looped/cyclic peptides of protein X5 of SARS-CoV Urbani [1]: 0.3
- Binding of serum 62 to linear peptides of protein X5 of SARS-CoV Urbani [1]: 0.9
- Binding of serum 62 to looped/cyclic peptides of protein X5 of SARS-CoV Urbani [1]: 0.1
- Binding of serum London to linear peptides of protein X5 of SARS-CoV Urbani [1]: 0.6
- Binding of serum London to looped/cyclic peptides of protein X5 of SARS-CoV Urbani [1]: 0.0
- Binding of serum SARS-green to linear peptides of protein X5 of SARS-CoV Urbani [1]: 0.6
- Binding of serum SARS-green to looped/cyclic peptides of protein X5 of SARS-CoV Urbani [1]: 0.6
- Binding of serum SARS-yellow to linear peptides of protein X5 of SARS-CoV Urbani [1]: 0.0
- Binding of serum SARS-yellow to looped/cyclic peptides of protein X5 of SARS-CoV Urbani [1]: 0.0
- Binding of Control Serum Blood-Bank to Looped peptides [2]: 0.3
- Binding of Control serum Blood-bank to linear peptides [2]: 0.6
- Binding of Control serum LUMC to linear peptides [2]: 0.4
- Binding of Control serum LUMC to looped peptides [2]: 0.0
- Rabbit serum linear peptides [3]: 0.8
- Rabbit serum looped peptides [3]: 0.0

Sequence: LIQQWIQFMMSRRRL
- Binding of serum 1a to linear peptides of protein X2 [1]: 0.7
- Binding of serum 1a to looped/cyclic peptides of protein X2 of SARS-CoV Urbani [1]: 0.5
- Binding of serum 1b to linear peptides of protein X2 [1]: 0.4
- Binding of serum 1b to looped/cyclic peptides of protein X2 of SARS-CoV Urbani [1]: 0.5
- Binding of serum 2 to linear peptides of protein X2 [1]: 0.4
- Binding of serum 2 to looped/cyclic peptides of protein X2 of SARS-CoV Urbani [1]: 0.8
- Binding of serum 6 to linear peptides of protein X2 [1]: 0.7
- Binding of serum 6 to looped/cyclic peptides of protein X2 of SARS-CoV Urbani [1]: 0.5
- Binding of serum 37 to linear peptides of protein X2 [1]: 0.6
- Binding of serum 37 to looped/cyclic peptides of protein X2 of SARS-CoV Urbani [1]: 0.5
- Binding of serum 62 to linear peptides of protein X2 [1]: 0.5
- Binding of serum 62 to looped/cyclic peptides of protein X2 of SARS-CoV Urbani [1]: 0.8
- Binding of serum London to linear peptides of protein X2 [1]: 0.5
- Binding of serum London to looped/cyclic peptides of protein X2 of SARS-CoV Urbani [1]: 0.9
- Binding of serum SARS-green to linear peptides of protein X2 [1]: 0.4
- Binding of serum SARS-green to looped/cyclic peptides of protein X2 of SARS-CoV Urbani [1]: 0.3
- Binding of serum SARS-yellow to linear peptides of protein X2 [1]: 0.8
- Binding of serum SARS-yellow to looped/cyclic peptides of protein X2 of SARS-CoV Urbani [1]: 0.5
- Binding of Control Serum Blood-Bank to Looped peptides [2]: 0.4
- Binding of Control serum Blood-bank to linear peptides [2]: 0.7
- Binding of Control serum LUMC to linear peptides [2]: 0.5
- Binding of Control serum LUMC to looped peptides [2]: 0.6
- Binding of a rabbit serum to linear peptides [3]: 0.3
- Binding of a rabbit serum to looped peptides [3]: 1.2
